For assay [1], the system named is ISG gene expression induced by MSA-2 in human THP1-Blue-ISG cells. As to the kind of experiment: Inhibition of MSA-2-induced ISG gene expression in human THP1-Blue-ISG cells (Quanti-Blue, OD650). The class given is cell-based. To be noted: STING agonist MSA-2 10 µM, incubated for 24 hours. As to the method: 10 µL of compound diluted with PBS/physiological saline was added to each well of a 96 well cell culture plate. The STING agonist was MSA-2, which was added to the counted cell suspension at a final concentration of 10 µM. For the control group without compounds, 10 µL of PBS/physiological saline containing 2% DMSO was added. 3 replicate wells were set in each group. THP1-Blue-ISG cells were counted and adjusted to a cell concentration of 4× 10^5/mL, and 190 µL of cells containing STING agonist were added to each well for incubation. Therefore, the final volume of each test well was 200 µL, the content of DMSO was 0.1%, and the final concentration of the compound tested was 10/3.3/1.1/0.4/0.13/0.04/0.013/0.004 µM, incubated for 24 hours. In addition, 190 µL of cells without STING agonist and 10 µL of physiological saline containing 2% DMSO were added to the blank group. 3 replicate wells were set in each group.
After 24 hours, 20 µL of culture medium was taken from each well and transferred to a new 96 well plate. 180 µL of chromogenic solution Quanti-Blue was added. The plate was placed in a 37 °C incubator. After 2 hours, the OD650 values were measured.
Result analysis: Inhibition rate (%) = (Con(OD650)−Treated(OD650))/Con(OD650) × 100% [formula]
(§1) The IC50 calculation of inhibitors was implemented using the Graphpad Prism 8 software's calculation method log (inhibitor) vs. response - Variable slope (four parameters), with a constrain interval of 0-100.

Assay [2] relates to DMXAA induced ISG gene expression in mouse RAW-Lucia cells. The assay can be described thus: Inhibition of DMXAA-induced ISG gene expression in mouse RAW-Lucia cells (QUANTI-Luc). To be noted: STING agonist DMXAA 50 µM, incubated for 24 hours. The class given is cell-based. As to the method: 10 µL of compound diluted with PBS/physiological saline was added to each well of a 96 well cell culture plate. The STING agonist was DMXAA, which was added to the counted cell suspension at a final concentration of 50 µM. For the control group without compounds, 10 µL of PBS/physiological saline containing 2% DMSO was added. 3 replicate wells were set in each group. RAW-Lucia cells were counted and adjusted to a cell concentration of 4×10^5/mL, and […] of cells were added to each well for incubation. Therefore, the final volume of each test well was 200 µL, the content of DMSO was 0.1%, and the final concentration of the compound tested was 10/3.3/1.1/0.4/0.13/0.04/0.013/0.004 µM. The final concentration of STING agonist DMXAA was 50 µM. The mixture was incubated for 24 hours. In addition, 200 µL of culture medium was added to the blank group. 3 replicate wells were set in each group.
After 24 hours, 20 µL of culture medium was taken from each well and transferred to a new 96 well plate with photopermeable bottom. 50 µL of the luciferase detection reagent QUANTI-Luc™ was added, and the […] was immediately measured (avoid light).
Result analysis: Inhibition rate (%) = (Con(Lum)−Treated(Lum))/Con(Lum) × 100% [formula]
as §1

Molecules are shown by their SMILES. pIC50: −log10 of the molar value.

For `COc1cccc(N2CC(CN3C(=O)C(C)(C)c4ccc(C(=O)Nc5c[nH]c6ccccc56)cc43)C2)c1` [Example I-15, N-(1H-indol-3-yl)-1-((1-3-methoxyphenylazetidin-3-yl)methyl)-3,3-dimethyl-2-oxoindolin-6-carboxamide], the pIC50 (in general, −log10 of the IC50, conventionally taken in molar units) was 6.88 in assay [1] and 7.21 in assay [2].

Regarding `CC1(C)C(=O)N(CC2CN(c3ccsc3)C2)c2cc(C(=O)Nc3c[nH]c4ccccc34)ccc21` [Example I-20, N-(1H-indol-3-yl)-3,3-dimethyl-2-oxo-1-((1-(thien-3-yl)azetidin-3-yl)methyl)indolin-6-carboxamide], the figures for the pIC50 in assay [1] and in assay [2] were 6.53 and 7.80, respectively.

Take `CC1(C)C(=O)N(Cc2ccccc2)c2cc(NC(=O)c3c[nH]c4ccccc34)ccc21` [C, reference compound]: the pIC50 is 5.81 in assay [1] and 6.73 in assay [2].

Turning to `CC1(C)C(=O)N(Cc2ccsc2)c2cc(NC(=O)c3c[nH]c4ccccc34)ccc21` [B, reference compound], the pIC50 is less than 5.00 in assay [1] and less than 6.00 in assay [2].

Consider `CC1(C)C(=O)N(Cc2ccccc2)c2cc(C(=O)Nc3c[nH]c4ccccc34)ccc21` [Example I-76, 1-benzyl-N-(1H-indol-3-yl)-3,3-dimethyl-2-oxoindolin-6-carboxamide], for which the pIC50 in assay [1] is 6.63; in assay [2] it was 8.65.

On to `CC1(C)C(=O)N(CC2CN(c3cc(Cl)cc(C(F)(F)F)c3)C2)c2cc(C(=O)Nc3c[nH]c4ccccc34)ccc21` [Example I-18], for which the pIC50 is 7.25 in assay [1] and 7.72 in assay [2].

Regarding `CC1(C)C(=O)N(Cc2ccco2)c2cc(C(=O)Nc3c[nH]c4ccccc34)ccc21` [Example I-80, 1-(furan-2-ylmethyl)-N-(1H-indol-3-yl)-3,3-dimethyl-2-oxoindolin-6-carboxamide], the negative logarithm of the IC50 (pIC50) in assay [1] was 6.20; in assay [2] it was 7.62.

For the compound `CC1(C)C(=O)N(CC2CN(c3cc(F)cc(C(F)(F)F)c3)C2)c2cc(C(=O)Nc3c[nH]c4ccccc34)ccc21` [Example I-17], the pIC50 in assay [1] was 7.49; in assay [2] it was 8.17.

In the case of `CC1(C)C(=O)N(CC2CC2)c2cc(C(=O)Nc3c[nH]c4ccccc34)ccc21` [Example I-78, 1-cyclopropylmethyl-N-(1H-indol-3-yl)-3,3-dimethyl-2-oxoindolin-6-carboxamide], the results for the pIC50 in assay [1] and in assay [2] were 6.48 and 8.13, respectively.

Turning to `CC1(C)C(=O)N(CC2CN(c3ccccc3)C2)c2cc(C(=O)Nc3c[nH]c4ccccc34)ccc21` [Example I-11, N-(1H-indol-3-yl)-3,3-dimethyl-2-oxo-1-((1-phenylazetidin-3-yl)methyl)indolin-6-carboxamide], the pIC50 in assay [1] is 6.74; in assay [2] it was 7.64.

On to `O=C(Nc1c[nH]c2ccccc12)c1cc2c(s1)SCC(=O)N2Cc1ccccc1` [Example I-6, 1-benzyl-N-(1H-indol-3-yl)-2-oxo-2,3-dihydro-1H-thieno[2,3-b][1,4]thiazin-6-carboxamide], for which the pIC50 is 6.41 in assay [1] and 7.48 in assay [2].

As to `O=C(Nc1ccc2c(c1)N(Cc1ccccc1)C(=O)CS2)Nc1c[nH]c2ccccc12` [A, reference compound], the pIC50 in assay [1] was 5.64; in assay [2], 6.79.

As for `CC1(C)C(=O)N(CCc2ccccc2)c2cc(C(=O)Nc3c[nH]c4ccccc34)ccc21` [Example I-81, N-(1H-indol-3-yl)-3,3-dimethyl-2-oxo-1-phenethylindolin-6-carboxamide], the pIC50 in assay [1] was 6.63; in assay [2], 9.38.

Regarding `O=C(Nc1c[nH]c2ccccc12)c1ccc2c(c1)N(CC1CC1)C(=O)CS2` [Example I-62, 4-(cyclopropylmethyl)-N-(1H-indol-3-yl)-3-oxo-3,4-dihydro-2H-benzo[b][1,4]thiazin-6-carboxamide], the negative-log IC50 (pIC50) in assay [1] is 6.92; in assay [2], 7.42.

In the case of `O=C(Nc1c[nH]c2ccccc12)c1ccc2c(c1)N(Cc1ccsc1)C(=O)CS2` [Example I-55, N-(1H-indol-3-yl)-3-oxo-4-(thien-3-ylmethyl)-3,4-dihydro-2H-benzothien[b][1,4]thiazin-6-carboxamide], the negative logarithm of the IC50 (pIC50) was 7.25 in assay [1] and 7.10 in assay [2].

The record behind these values is patent EP4748844A1, “AZETIDINE COMPOUND AND MEDICAL USE THEREOF” (SHANGHAI INSTITUTE OF MATERIA MEDICA, CHINESE ACADEMY OF …, priority 2023, dated 2025).
